Test results as given in patent publication US12180159B2, “Activators of the unfolded protein response” (The Board of Trustees of the University of Illinois, priority 2018, dated 2024).

Assays:
Caov-3 cells = test: Cell death of Caov-3 ovarian cancer cells (automated Trypan Blue exclusion); assay type: cell-based, human; settings: 24 hours
Experimental: FIG. 33. 105, but not BHPI, kills therapy-resistant ovarian CaOV-3 ovarian cancer cells. (±)-105; Cell death assay: Automated Trypan Blue exclusion. (24 hours post (±)-105) FIG. 34. (−)105 nearly eradicates ER+ drug-resistant tumors. Orthotopic breast cancer model, TYS-Luc cells, 40 mg/kg (−)-105 i.p., daily. 7 d Post injection image is a much longer exposure at higher gain than before injection image.
Caov3: Drug resistant ERα positive ovarian cancer cells. […] These cells are completely resistant to tamoxifen and fulvestrant and partially resistant to cisplatin and paclitaxel.

[1] = system: T47D, TYS-4 and TDG-1 cells; test: MTS proliferation assay, T47D, TYS and TDG cells; assay type: cell-based, human; settings: 4 days
Experimental: FIG. 30 compares the ability of BHPI and test compounds to inhibit proliferation of T47D, TYS and TDG cells. T47D cells were in medium containing 10 FBS (which contains estrogen), TYS-4 and TDG-1 cells were in medium containing 10% cd-FBS (estrogen depleted). Cells are plated at 2,000 cells/well in 96 well plates. After 24 hours in medium containing FBS or charcoal-dextran treated FBS (depleted of endogenous estrogens), the indicated concentration of each compound (in DMSO at 1/1000th of the volume of medium) was added. After 2 days the medium was changed, and the compounds were added again. After 2 additional days (4 days total) MTS assays are used to evaluate cell proliferation. (n=6±S.E.M.).

TYS cells (T47DERαY537S) = test: Trypan Blue exclusion cell death assay, TYS cells; assay type: cell-based, human; settings: 24 hours
From the text: (§1) TRYPAN BLUE: For decades, viable cells have been measured by their ability to exclude the dye Trypan Blue. […] Dead cells, which have lost membrane integrity, take up the dye and are blue. Thus, the percentage of dead cells is the percentage of cells that are Trypan Blue positive out of the total cell population. Quantitative assessment of Trypan Blue uptake uses a cell counter from Fisher. Since the assay is instrument based, there is no observer bias in determining the percentage of Trypan Blue positive cells.
(§2) TRYPAN BLUE ASSAYS: Assays are performed on cells in 6 well plates: 300,000 cells are plated in each well of a 6 well plate in 3 ml of medium. After 24 hours, the DMSO vehicle or the indicated compound is added (in 1000th of the vol.) The cells incubated for an additional 24 hours, and then harvested in 0.25 ml of trypsin, followed after harvest by 0.75 ml of medium. The cells are spun down and resuspended in 100-200 μl of medium left that is over the cell pellet (resuspend cells by pipetting up and down a few times). Add 10 μl to 10 μl of trypan blue. Then 10 μl is inserted into the counting slide. After inserting the slide into the Fisher TC20 counting is automatic (these many cells are needed because an accurate ratio of Trypan Blue positive to Trypan Blue negative cells requires about 200 cells in the field the instrument counts).
TYS cells were incubated for 24 hours with 35 nM of BHPI or 35 nM of each of the indicated test compounds: 2, 4, and 105. Cell death was determined using the instrument-based Trypan Blue exclusion assay. (n=3±SEM).
TYS cells were incubated for 24 hours with 50 nM of BHPI or 50 nM of each of the indicated test compounds: 4, 6 and 105. Cell death was determined using the instrument-based Trypan Blue exclusion assay. (n=3±SEM).

TDG cells (T47DERαD538G) = test: Trypan Blue exclusion cell death assay, TDG cells; assay type: cell-based, human; settings: 24 hours; for killing of TDG-Luc cells: dose response
From the text: as §1, §2
The Trypan Blue cell death assay was used to evaluate the ability of the active enantiomer of C-105 [(−)-105] to kill ERα positive TDG-Luc cells. For all studies, 300,000 TDG-Luc cells/well in 10% FBS were plated in a 6 well plate in triplicate. 24 hours after plating, the indicated concentrations the active enantiomer of (−)-105, or BHPI (top) ICI, or OHT (Lower left) or (+)-105 (lower right) were added. After 24 hours, the cells were harvested, and the % dead cells was determined by automated Trypan Blue exclusion using the Countess II automated hemocytometer. Percentage of viable cells was calculated by doing 100−(Cell Death %). (n=3±SEM).
TDG cells were incubated for 24 hours with 75 nM of BHPI or 75 nM of each of the indicated test compounds: 4, 6 and (±)-105 (enantiomers not separated). Cell death was determined using the instrument-based Trypan Blue exclusion assay. Structures are in the Synthesis section. […] (n=3±SEM).

[2] = system: ERα positive and ERα negative cell lines; assay type: cell-based
Experimental: ERα positive MCF-7 breast cancer, Caov-3 ovarian cancer and ECC-1 uterine cancer cells and ERα negative MDA-MB-231 human breast cancer cells and HeLa, human cervical carcinoma cells and MCF-10A human mammary epithelial cells were plated at 10,000 cells/well (96 well plate) in 50 μl of medium. After about 18 hours, an additional 50 μl of medium containing 2× the desired final concentration of the test compound (C-105) was added to each well (final vol. 100 μl/well). After 24 hours Alamar Blue reagent was added and fluorescence in the wells was read after 1 hour (BMG PheraStar Microplate Reader). % relative death was determined by setting the reading for 10,000 nM raptinal-treated cells to 100% dead cells and the reading for vehicle-treated cells to 0% dead cells. (Data is the average±SEM of 3 independent experiments with 5 biological replicates for each sample within each independent experiment.)
FIG. 3 compares the ability of (±)-105 to kill ERα positive and ERα negative cells. The dose response tests the ability of (±)-105 to rapidly kill ERα positive and ERα negative cells. […] After 24 hours Alamar Blue reagent was added and fluorescence in the wells was read. % relative death was determined by setting the reading for […] raptinal-treated cells to 100% dead cells and the reading for vehicle-treated cells to 0% dead cells. […]

[3] = system: ERα Negative MCF-10A cells; test: Trypan Blue exclusion cell death assay, MCF-10A cells; assay type: cell-based; settings: 75 nM, 24 hours
From the text: as §1, §2
In FIG. 28, neither the test compounds nor BHPI kill non-tumorigenic ERα Negative MCF-10A breast cells. ERα Negative MCF-10A cells were maintained for 24 hours in DMSO vehicle or 75 nM of BHPI or 75 nM of each of the indicated test compounds: 4, 6 and 105. Cell death was determined using the instrument-based Trypan Blue exclusion assay. (n=3±SEM).

[4] = system: MCF-7 ERα Y537S-luciferase cells; test: Long-term cell culture experiment, MCF-7Y537S cells; assay type: cell-based, human; settings: conditions as FIG. 15
MCF-7 and TYS-Luc cells = test: Cell death with 2-APB or thapsigargin (Trypan Blue exclusion); assay type: cell-based, human; settings: 2-APB
Experimental: ERα positive MCF-7 and TYS-Luc were treated with DMSO vehicle (Veh), or BHPI or (−)-105 plus or minus 2-APB for the indicated times. Cells death was determined using the instrument-based Trypan Blue exclusion assay. […] This is consistent with (−)-105 inducing powerful lethal activation of the anticipatory UPR pathway. (n=3±SEM). […] TYS-Luc cells were maintained in DMSO vehicle (Veh) or BHPI, or (−)-105 with or without thapsigargin (THG) for the indicated times. Blocking the decline in ATP levels (FIG. 19) with THG inhibited (−)-105-induced cell death. […] (n=3±SEM).

[5] = system: TYS and TDG breast cancer cells; test: Killing of TYS and TDG breast cancer cells by endocrine therapy drugs; assay type: cell-based, human
MCF-7 tumors = test: MCF-7 orthotopic tumor model; assay type: in vivo, mouse; settings: mouse, in vivo
Experimental: FIG. 39. SERK-F6 eradicates wild-type ERα tumors via hyperactivation of aUPR. a, MCF-7 orthotopic tumors were established in Nu/J ovariectomized mice supplemented with a 60 day E2 pellet (0.36 mg) and grown to ˜400 mm^3 (28 days to establish), randomized, then treated with vehicle daily (n=3), vehicle weekly (n=3), fulv. weekly (5 mg/mouse, s.c., n=6), SERK-F6 daily (10 or 40 mg/kg p.o.). Vehicle arms were averaged. p values: *: p<0.05, **: p<0.01, ***: p<0.001, ****: p<0.0001. Tumor images were taken at the end of the study (day 21) and are representative of all tumors (n=6). b-e, MCF-7 cells were orthotopically bi-laterally grafted and tumors were grown until total tumor burden was ˜ 400 mm^3 prior to daily treatment with vehicle or SERK-F6 (40 mg/kg p.o.). Mice (n=5 per arm) were sacrificed after 3 days (b,c) and 7 days (d,e) and tumors harvested. […] Vinculin (Vin) was used as a loading control. […] Error bars represent S.E.M.
FIG. 40. SERK-F6 is tolerated, reaches biologically relevant concentrations, and crosses the blood-brain barrier in vivo. a, Serum concentrations of SERK-F6 after indicated doses, route of administration, and time. Concentration was determined via LC/MS/MS analysis. […] AUC: Area Under the Curve, Cmax: maximum concentration, t1/2: half-life. c,d, Mice (CD-1) were treated with the indicated doses and times, then sacrificed and their serum and brains collected. Concentrations were determined via LC/MS/MS analysis. […] Treatment arms: vehicle daily (n=3), vehicle weekly (n=3), fulv. weekly (5 mg/mouse, s.c., n=6), SERK-F6 daily (10 or 40 mg/kg p.o.). Vehicle arms were combined. g, Mass of tumors harvested from mice. h, observed murine weight during this MCF-7 study (n=6). i,j, Tumor measurements for MCF-7 bilateral orthotopic model (n=4-5).
To probe the efficacy of SERK-F6 for killing ERα positive tumors, large MCF-7 tumors were grown and then intervened with therapy. […] The mice were then sacrificed prior to complete tumor eradication.

OVCAR-3 cells = settings: OVCAR-3 orthotopic xenograft

SMILES: O=C1Nc2c(C(F)(F)F)cccc2C1(c1ccc(O)cc1)c1ccc(OC(F)(F)F)cc1 (racemic) [(±)-105, 3-(4-hydroxyphenyl)-3-(4-(trifluoromethoxy)phenyl)-7-(trifluoromethyl)indolin-2-one]
- killing of Caov-3 ovarian cancer cells (Caov-3 cells): kills
- effectiveness in killing ERα positive breast cancer cells compared to BHPI [1]: more effective than BHPI
- ability to kill TYS cells compared to BHPI (TYS cells (T47DERαY537S); 35 nM): greatly increased ability to kill
- ability to kill TYS cells compared to BHPI (TYS cells (T47DERαY537S); 50 nM): increased ability to kill
- ability to kill TDG cells compared to BHPI (TDG cells (T47DERαD538G); 75 nM): greatly increased ability to kill
- selectivity for ERα positive cancer cell lines ([2]; 0-10,000 nM, 24 hours): selective for ERα positive cancer cell lines
- death of ERα Negative MCF-10A cells [3]: neither BHPI nor any of the test compounds induce significant death

SMILES: O=C1Nc2c(C(F)(F)F)cccc2C1(c1ccc(O)cc1)c1ccc(OC(F)(F)F)cc1 (single isomer, unassigned; (+)) [(+)-105, 3-(4-hydroxyphenyl)-3-(4-(trifluoromethoxy)phenyl)-7-(trifluoromethyl)indolin-2-one]
- effect on MCF-7Y537S cells in long-term experiments [4]: inactive
- killing of TDG-Luc cells (TDG cells (T47DERαD538G)): inactive and does not kill
- effect of the inactive enantiomer in ERα positive and ERα negative cell lines [2]: ineffective and not toxic

SMILES: NCCOB(c1ccccc1)c1ccccc1 [2-APB]
- effect on (−)-105-induced cell death (MCF-7 and TYS-Luc cells; 45 and 60 min.): partially blocked
- effect on (−)-105-induced cell death (MCF-7 and TYS-Luc cells; 30 minutes): nearly completely blocked

SMILES: COc1ccc(C2(c3ccc(O)cc3)C(=O)Nc3c(C)cccc32)cc1 (centres unmarked) [compound 2, 3-(4-hydroxyphenyl)-3-(4-methoxyphenyl)-7-methylindolin-2-one]
- effectiveness in killing ERα positive breast cancer cells compared to BHPI [1]: more effective than BHPI

SMILES: Cc1cccc2c1NC(=O)C2(c1ccc(O)cc1)c1ccc(OC(F)(F)F)cc1 (centres unmarked) [compound 6, 3-(4-hydroxyphenyl)-7-methyl-3-(4-(trifluoromethoxy)phenyl)indolin-2-one]
- effectiveness in killing ERα positive breast cancer cells compared to BHPI [1]: more effective than BHPI
- death of ERα Negative MCF-10A cells [3]: neither BHPI nor any of the test compounds induce significant death

SMILES: C[C@]12CC[C@@H]3c4ccc(O)cc4C[C@@H](CCCCCCCCC[S+]([O-])CCCC(F)(F)C(F)(F)F)[C@H]3[C@@H]1CC[C@@H]2O (some centres unmarked) [fulvestrant, reference compound]
- ability to kill TYS and TDG breast cancer cells [5]: no ability at all to kill
- effect on large established MCF-7 tumors (MCF-7 tumors): dramatic effects against these large and established tumors are not obtained
- killing of TDG-Luc cells (TDG cells (T47DERαD538G)): do not kill

SMILES: CC(=O)O[C@H]1C(=O)[C@@]2(C)[C@H]([C@H](OC(=O)c3ccccc3)[C@]3(O)C[C@H](OC(=O)[C@H](O)[C@@H](NC(=O)c4ccccc4)c4ccccc4)C(C)=C1C3(C)C)[C@]1(OC(C)=O)CO[C@@H]1C[C@@H]2O [paclitaxel]
- effect on tumor growth / tumors (OVCAR-3 cells): ineffective

SMILES: CC/C(=C(\c1ccccc1)c1ccc(OCCN(C)C)cc1)c1ccccc1 [tamoxifen]
- ability to kill TYS and TDG breast cancer cells [5]: no ability at all to kill
